# What was measured:
# [1] = DSC doublet peak area (α-structure) of hair after heat cycles; settings: for Doublet Peak Area: 0.06 M solutions
# Description: (§1) Normal blonde hair was bleached with Clairol Basic White Bleach (40 volume H2O2) for 20 min at standard room temperature and humidity. The bleached swatches were rinsed with tap water, and soaked in an excess of deionized water for 2 hours. The swatches were air-dried and equilibrated for 48 hours prior to further treatment. Some of the bleached swatches were subsequently “permed” using a Reforming Lotion (10% TGA, pH 8.8, 20 minutes) and then neutralized with 2% H2O2, pH 3 (5 minutes). The bleached/permed swatches were rinsed with tap water, and soaked in an excess of deionized water for 2 hours. The swatches were air-dried and equilibrated for 48 hours prior to further treatment. The swatches that were heat treated were treated with 0.06M solutions of hexoses and pentoses for 10 min at 45° C. and then were heated for 12 cycles. The swatches were rinsed after the heat application.
# (§2) In the DSC tests, finely cut hair (4-5 mg) was crimped in an aluminum pan that was punctured prior to each run. The samples were heated from 25° C. to 300° C., at a scanning rate of 20° C./min, with 5 runs per treatment. The results were averaged.
# (§3) Normal blonde hair was bleached with Clairol Basic White Bleach, 40 volume H2O2, for 20 min at room temperature. One batch of normal and bleached hair swatches underwent five heat cycles at 130° C., where one treatment cycle involved the following steps (1-4):
# (§4) 1. The swatches were treated with 0.06 M solutions of monosaccharides in deionized water (about 1 wt %) for 10 min at 45° C.
# (§5) 2. The treated swatches were blow-dried for 1 min.
# (§6) 3. The heat was applied for 1 min in the form of a flat hair iron Windmere “Solid Gold” (130° C.).
# (§7) 4. The swatches were rinsed and blot-dried with a paper-towel.
# (§8) The treatment solutions included four pentoses (D-xylose, D-arabinose, D-lyxose, and D-ribose, 1% each) and one hexose (1.2% D-glucose). Deionized water was used as a control treatment. After the heat experiment, the hair was rinsed in water, air-dried, and equilibrated for 24 hours in the humidity chamber at 25° C. and 50% RH prior to further testing. These swatches are referred to as treated at 130° C.
# (§9) A second batch of normal and bleached hair swatches were treated in a similar way and blow-dried, without application of the hot iron. The treatment was also repeated 5 times, the swatches from the second batch are referred to as treated at 45° C.
# Normal blonde hair was divided in two batches. The hair from the first batch was bleached with Clairol Basic White Bleach, 40 volume H2O2, for 20 min at room temperature and humidity. The hair from the second batch was first bleached as above, and then permed: Reforming lotion-10% Thioglycolic acid, pH 8.8, 20 min; neutralizer-2% hydrogen peroxide, 5 min. The oxidatively damaged hair was equilibrated for 24 hours prior to further testing.
# (§10) Both the bleached and the bleached/permed hair were subjected to heat treatment, as in Example 2. The heat treatment experiment involved 12 heat cycles including application of sugar or control solution before each heat application, and rinsing after the heat application. Deionized water was used as a control treatment.
# (§11) After the heat experiment, the hair was rinsed in water, air-dried, and equilibrated for 24 h in the humidity chamber at 25° C. and 50% RH prior to further testing. The effect of the hexoses vs. pentoses on the dry tensile strength (INSTRON) and the alpha-structure (doublet peak area, DSC) was tested on the bleached hair (Table 13). The effect of a hexose (D-glucose) vs. a pentose (D-Xylose) on wet tensile strength (DIA-STRON) was tested both on the bleached and the bleached/permed hair (Table 14). Application of 0.06M solutions of pentoses protected the bleached and the bleached/permed hair against thermal damage (α-structure; wet and dry tensile strength).
# [2] = as above; settings: normal blonde hair
# Description: as §1, §2, §3, §4, §5, §6, §7, §8, §9
# Normal blonde hair was subjected to 12 heat cycles, as described in Example 2, using the following treatment solutions: 0.1% D-Xylose (pentose), 0.1% D-Erythrose (tetrose), and 0.1% D-Glyceraldehyde (triose). Each of the C3 to C5 monosaccharides was effective in protecting or reducing the damage to the α-structure of the hair, as compared to water treatment (Table 15).
# Normal blonde hair was subjected to 12 heat cycles, as described in Example 2, using 0.1 wt % of the pentose amine derivative, D-Lyxosylimine in deionized water.
# [3] = Dry tensile strength (Instron) after heat cycles; settings: for protection of dry tensile strength, in words: hair treated 5 cycles at 45° C. and at 130° C.
# Description: as §1
# (§12) Tensile strength was determined using both the Instron (50 dry fibers per tests) and the Dia-Stron (100 wet fibers per test), with the stretching rate of 100 mm/min. The following parameters were determined: Young's Modulus (N/m^2), Work to stretch 25% (J/m^2); Extension to Break (degree of elongation) (%); Work to Break (J/m^2).
# as §3, §4, §5, §6, §7, §8, §9, §10, §11
# [4] = Dry tensile strength (Instron) after heat cycles; settings: normal blonde hair, 5 heat cycles at 130° C., 0.06 M solutions, n = 50 fibers
# Description: as §12, §3, §4, §5, §6, §7, §8, §9
# [5] = DSC doublet peak area (α-structure) of hair after heat cycles; settings: bleached/permed hair, 12 heat cycles, 0.06 M
# Description: Normal blonde hair was bleached with Clairol Basic White Bleach (40 volume H2O2) for 20 min at standard room temperature and humidity. The bleached swatches were rinsed with tap water, and soaked in an excess of deionized water for 2 hours. The swatches were air-dried and equilibrated for 48 hours prior to further treatment. Some of the bleached swatches were subsequently “permed” using a Reforming Lotion (10% TGA, pH 8.8, 20 minutes) and then neutralized with 2% H2O2, pH 3 (5 minutes). The bleached/permed swatches were rinsed with tap water, and soaked in an excess of deionized water for 2 hours. The swatches were air-dried and equilibrated for 48 hours prior to further treatment. The swatches that were heat treated were treated with 0.06M solutions of hexoses and pentoses for 10 min at 45° C. and then were heated for 12 cycles. The swatches were rinsed after the heat application. In the DSC tests, finely cut hair (4-5 mg) was crimped in an aluminum pan that was punctured prior to each run. The samples were heated from 25° C. to 300° C., at a scanning rate of 20° C./min, with 5 runs per treatment. The results were averaged. Normal blonde hair was divided in two batches. The hair from the first batch was bleached with Clairol Basic White Bleach, 40 volume H2O2, for 20 min at room temperature and humidity. The hair from the second batch was first bleached as above, and then permed: Reforming lotion-10% Thioglycolic acid, pH 8.8, 20 min; neutralizer-2% hydrogen peroxide, 5 min. The oxidatively damaged hair was equilibrated for 24 hours prior to further testing. Both the bleached and the bleached/permed hair were subjected to heat treatment, as in Example 2. The heat treatment experiment involved 12 heat cycles including application of sugar or control solution before each heat application, and rinsing after the heat application. Deionized water was used as a control treatment. After the heat experiment, the hair was rinsed in water, air-dried, and equilibrated for 24 h in the humidity chamber at 25° C. and 50% RH prior to further testing. The effect of the hexoses vs. pentoses on the dry tensile strength (INSTRON) and the alpha-structure (doublet peak area, DSC) was tested on the bleached hair (Table 13). The effect of a hexose (D-glucose) vs. a pentose (D-Xylose) on wet tensile strength (DIA-STRON) was tested both on the bleached and the bleached/permed hair (Table 14). Application of 0.06M solutions of pentoses protected the bleached and the bleached/permed hair against thermal damage (α-structure; wet and dry tensile strength).
# [6] = bleached hair, 5 cycles at 45° C.
# [7] = bleached hair, 5 heat cycles at 130° C.
# [8] = 5 heat cycles at 130° C., 0.06 M solutions
# [9] = dry, bleached hair, 5 cycles at 45° C., 0.06 M solutions, n = 50 fibers
# [10] = 0.1 wt % solutions, 12 heat cycles at 130° C.
# [11] = bleached hair after 12 heat cycles
# [12] = bleached hair after 12 heat cycles, 0.06 M solutions, n = 100 fibers
# [13] = dry bleached hair, 12 heat cycles, 0.06 M, INSTRON, n = 50 fibers
# [14] = bleached hair, 5 heat cycles at 130° C., 0.06 M solutions, n = 50 fibers
Compound,"Doublet Peak Area [1, 11]","Work 25% (Dry) [3, 12]","Extension-Break [3, 13]","Work 25% [3, 13]","Work-Break [3, 13]","Young's Modulus [3, 13]",further results
O=C[C@@H](O)[C@H](O)[C@H](O)CO [D-Arabinose],–,–,–,–,–,–,"Doublet Peak Area [1, 6]: 7.78 +/− 1.07 J/g hair; Doublet Peak Area [1, 7]: 8.22 +/− 0.90 J/g hair; Doublet Peak Area [2, 8]: 11.33 +/− 2.30 J/g hair; Work 25% [3, 9]: 1,147 +/− 191 J/m^2; protection of dry tensile strength, in words [3]: improved protection both at 45 °C and at 130 °C; Work 25% (Dry) [4]: 1,060 +/− 180 J/m^2"
O=C[C@H](O)[C@H](O)CO [D-Erythrose],–,–,–,–,–,–,"Doublet Peak Area [2, 10]: 13.20 +/− 7.15 J/g hair"
O=CC[C@H](O)[C@H](O)CO [2-Deoxy-D-ribose],9.63 +/− 2.87 J/g hair,"1,032 +/− 163 J/m^2",55.35 +/− 7.52%,"1,032 +/− 163 J/m^2","2,872 +/− 709 J/m^2","5,111 +/− 871 MN/m^2","Normalized area [5]: 6.43 +/− 1.87 J/g hair; protection effect (normalized α-structure peak area), in words ([1]; bleached and bleached/permed hair, 12 heat cycles): protection effect was found; Normalized area ([1]; bleached hair, 12 heat cycles, 0.06 M): 9.63 +/− 2.87 J/g hair"
C[C@H](O)[C@@H](O)[C@@H](O)[C@H](O)C=O [L-Fucose],5.26 +/− 1.59 J/g hair,838.2 +/− 134.5 J/m^2,57.01 +/− 6.18%,838.2 +/− 134.5 J/m^2,"2,346 +/− 543 J/m^2","4,331 +/− 860 MN/m^2",–
O=C[C@@H](O)[C@@H](O)[C@H](O)CO [D-Lyxose],–,–,–,–,–,–,"Doublet Peak Area [1, 6]: 8.26 +/− 3.02 J/g hair; Doublet Peak Area [1, 7]: 6.23 +/− 0.59 J/g hair; Doublet Peak Area [2, 8]: 8.35 +/− 0.81 J/g hair; Work 25% (Dry) [3, 14]: 819.9 +/− 162.7 J/m^2; Work 25% [3, 9]: 1,157 +/− 228 J/m^2; protection of dry tensile strength, in words [3]: better improved protection at 45 °C; Work 25% (Dry) [4]: 883.4 +/− 174.2 J/m^2"
O=C[C@H](O)[C@@H](O)[C@@H](O)[C@H](O)CO [D-Galactose],5.39 +/− 2.29 J/g hair,945.8 +/− 168.9 J/m^2,58.82 +/− 6.21%,945.8 +/− 168.9 J/m^2,"2,696 +/− 533 J/m^2","4,724 +/− 913 MN/m^2",–
O=C(CO)[C@@H](O)[C@H](O)[C@H](O)CO [D-Fructose],6.51 +/− 1.71 J/g hair,885.0 +/− 161.0 J/m^2,59.89 +/− 8.11%,885 +/− 161 J/m^2,"2,644 +/− 644 J/m^2","4,492 +/− 852 MN/m^2",–
O=C[C@H](O)CO [D-Glyceraldehyde],–,–,–,–,–,–,"Doublet Peak Area [2, 10]: 13.47 +/− 3.03 J/g hair"
O=C[C@@H](O)[C@@H](O)[C@H](O)[C@H](O)CO [D-Mannose],5.47 +/− 1.27 J/g hair,914.9 +/− 122.0 J/m^2,57.33 +/− 5.98%,914.9 +/− 122 J/m^2,"2,595 +/− 433 J/m^2","4,746 +/− 688 MN/m^2",–
D-Lyxosylimine,–,–,–,–,–,–,"Doublet Peak Area ([2]; 0.1 wt % Lyxosylimine, 12 heat cycles at 130° C.): 11.49 +/− 3.56 J/g hair; protection of the α-structure as compared to water treatment, in words ([2]; 0.1 wt % solutions, 12 heat cycles): protected the α-structure hair"
O=C[C@H](O)[C@H](O)[C@H](O)CO [D-Ribose],–,–,–,–,–,–,"Doublet Peak Area [1, 6]: 7.80 +/− 1.87 J/g hair; Doublet Peak Area [1, 7]: 9.27 +/− 2.81 J/g hair; Work 25% (Dry) [3, 14]: 1,064 +/− 171.1 J/m^2; Work 25% [3, 9]: 1,237 +/− 204 J/m^2; protection of dry tensile strength, in words [3]: improved protection both at 45 °C and at 130 °C"

# Source: patent US7815900B1, “Use of C3-C5 monosaccharides to protect keratinous fibers” (L'Oréal S.A., priority 2000, dated 2010)
